According to patent publication US20130210907A1, “METHOD FOR PREVENTING OR TREATING ENTEROCHROMAFFIN CELL HYPERPLASIA-RELATED DISEASES BY QUERCETIN ADMINISTRATION” (HONG KONG BAPTIST UNIVERSITY, priority 2012, published 2013):

Columns and labels:
Type in all cases: in vivo, rat
PI-IBS rats [1] = test: EMG recording: visceral motor response to graded colorectal distension (CRD)
Protocol: Sprague-Dawley male rats (Laboratory Animal Services Centre, The Chinese University of Hong Kong) aged 6 weeks with body weight around 220 g are used to develop PI-IBS model. Briefly, rats are fasted for 24 h, and deeply anesthetized with chloral hydrate (350 mg.kg^−1, i.p.). After induction of colitis by 2,4,6-trinitrobenzenesulfonic acid solution (TNBS, 5 mg/0.8 ml/rat, in 50% ethanol, 8 cm from anus) administration, the rats are allowed to recover for at least 4 weeks before use. The control rats are similarly administered with 0.8 ml saline instead of TNBS. Only the rats that have completely recovered from the initial inflammation and acquired visceral hypersensitivity are used as the PI-IBS rats.
6 groups of 12 rats are tested. Normal rats (Group 1) are treated with water. PI-IBS rats are randomly divided into 5 groups and orally treated with water (Group 2), Doxantrazole (mast cell stabilizer, 30 mg/kg/d, Group 3), and Quercetin (Group 4-6) at the dose of 5, 10, and 20 mg/kg/d, respectively. After 2 weeks daily drug administration, 5 rats in each group are used to measure pain threshold pressure by abdominal withdrawal reflex (AWR) test, and the remaining […] is used for electromyography (EMG) recording.
AWR test is performed as previously described in Al-Chaer E D, Kawasaki M, Pasricha P J. A new model of chronic visceral hypersensitivity in adult rats induced by colon irritation during postnatal development. Gastroenterology. 2000 November; 119(5):1276-85. Briefly, rats are lightly anesthetized with ether; a latex balloon is inserted into the descending colon. Rats are then allowed to recover for about 1 h. The tube of the balloon is connected via a Y-connector to a sphygmomanometer and colorectal distension is applied in increments of 5 mmHg until a visible contraction of the abdominal wall is observed by an investigator blinded to the treatment. The pain threshold pressure is defined as the intensity of colorectal distension (CRD) that elicited an observable AWR, i.e. a sudden and persistent abdominal muscle contraction with abdomen lift off the platform. The pain threshold pressure of all groups is recorded and repeated five times with intervals of at least 5 minutes for recovery. EMG recording are conducted as previously described in Tammpere A, Brusberg M, Axenborg J, Hirsch I, Larsson H, Lindstrom E. Evaluation of pseudo-affective responses to noxious colorectal distension in rats by manometric recordings. Pain. 2005 August; 116(3):220-6 and Li Z, Zhang X J, Xu H X, Sung J J, Bian Z X. Intracolonical administration of protease-activated receptor-2 agonists produced visceral hyperalgesia by up-regulating serotonin in the colon of rats. Eur J. Pharmacol. 2009 Mar. 15; 606(1-3):199-204. Firstly, a surgical operation is made to implant the electrodes into the left external abdominal oblique muscles 7 days before EMG recording. After the last drug administration, a flexible latex balloon is inserted into the rat descending colon, and the rats are allowed to accommodate for 1 h. CRD is initiated, and the EMG signal is amplified and filtered by Power Lab System. Graded colorectal distension (20, 40, 60, and 80 mmHg; 20 s duration; 2 min inter-stimulus interval) is carried out for total three cycles to each rat. The changes of area under the curve (AUC) are calculated using that during 20 s distension period over the 20 s baseline.

TPH = test: Colonic TPH expression by Western blot
Protocol: The colon tissues are homogenized and sonicated on ice for protein extraction. After determination of protein content, the samples protein are denatured at 100° C. for 5 min. Proteins are separated by 10% SDS-PAGE and transferred to PVDF membranes (Bio-Rad, CA). After blocking with 5% nonfat milk, the membranes are incubated overnight at 4° C. with rabbit anti-TPH antibody (1:1000, Santa Cruz, Calif.), then incubated with the appropriate secondary antibodies for 1 h at room temperature. The immunoreaction is detected using ECL Western blotting kit (ECL, Amersham, UK). Bands are visualized on Biomax X-ray film, and optical density of each band is semi-quantified by computer software (Image J.NIH). All detected protein bands are normalized to β-actin levels.

PI-IBS rats [2] = test: Colonic EC cell counting (silver staining); conditions: for EC cell density: PI-IBS rats, colon
Protocol: Six groups of 5 rats are tested. The groups setting and treatments are as described in Example 1. Different from Example 1, AWR test are not applied to the rats in this experiment in order to obtain the basal data without CRD stimulus. After the last drug administration, a 6 cm proximal colon (1-2 cm from caecum) is collected and divided into 3 parts, the proximal is fixed in 4% paraformaldehyde and embedded in paraffin for EC cell staining; the middle part is collected for 5-HT content measurement and electron microscopic evaluation, and the distal part is for western blotting analysis.
Tissue sections (5-μm thick) are deparaffinized and rehydrated for silver staining. Briefly, sections are incubated with 5% ammoniacal silver solution for 4 h at room temperature, then 2 h in 56° C. and subsequently 12 h at room temperature in a dark humidified chamber. After rinsing with water, 5% sodium hyposulfite is added and the tissue sections are incubated for 5 min at room temperature. The brown to black silver precipitate in the cytoplasm of EC cells represents as a positive reaction. A researcher blinded to treatment counted 5 random fields at 200× magnifications for each section, and the number of EC cells per mm^2 of mucosa is quantified using Image J NIH software.

normal rats = test: Pain threshold pressure in normal rats; conditions: 10 mg/kg i.g., 14 days
Protocol: AWR test is performed as previously described in Al-Chaer E D, Kawasaki M, Pasricha P J. A new model of chronic visceral hypersensitivity in adult rats induced by colon irritation during postnatal development. Gastroenterology. 2000 November; 119(5):1276-85. Briefly, rats are lightly anesthetized with ether; a latex balloon is inserted into the descending colon. Rats are then allowed to recover for about 1 h. The tube of the balloon is connected via a Y-connector to a sphygmomanometer and colorectal distension is applied in increments of 5 mmHg until a visible contraction of the abdominal wall is observed by an investigator blinded to the treatment. […] The pain threshold pressure of all groups is recorded and repeated five times with intervals of at least 5 minutes for recovery. […] The changes of area under the curve (AUC) are calculated using that during 20 s distension period over the 20 s baseline.
To identify whether the effects of Quercerin in PI-IBS rats are specific, pain threshold pressure, colonic EC cell number and 5-HT content are further evaluated in normal rats treated with Quercetin. […] After the final drug administration, pain threshold pressure, colonic EC cell density and 5-HT content are evaluated and the methods used here are as same as that shown in above experiments.

## O=c1c(O)c(-c2ccc(O)c(O)c2)oc2cc(O)cc(O)c12 [Quercetin, 2-(3,4-dihydroxyphenyl)-3,5,7-trihydroxy-4H-chromen-4-one]
PI-IBS rats [1]; 5 mg/kg i.g., 20 mmHg
  AUC value under graded distension pressures (EMG): 161.22 ± 41.53
PI-IBS rats [1]; 5 mg/kg i.g., 40 mmHg
  AUC value under graded distension pressures (EMG): 463.55 ± 12.42
PI-IBS rats [1]; 5 mg/kg i.g., 60 mmHg
  AUC value under graded distension pressures (EMG): 586.42 ± 56.68
PI-IBS rats [1]; 5 mg/kg i.g., 80 mmHg
  AUC value under graded distension pressures (EMG): 906.84 ± 41.08
PI-IBS rats [1]; 10 mg/kg i.g., 20 mmHg
  AUC value under graded distension pressures (EMG): 124.61 ± 67.68
PI-IBS rats [1]; 10 mg/kg i.g., 40 mmHg
  AUC value under graded distension pressures (EMG): 386.85 ± 65.68
PI-IBS rats [1]; 10 mg/kg i.g., 60 mmHg
  AUC value under graded distension pressures (EMG): 530.98 ± 21.08
PI-IBS rats [1]; 10 mg/kg i.g., 80 mmHg
  AUC value under graded distension pressures (EMG): 842.34 ± 62.92
PI-IBS rats [1]; 20 mg/kg i.g., 20 mmHg
  AUC value under graded distension pressures (EMG): 88.28 ± 43.43
PI-IBS rats [1]; 20 mg/kg i.g., 40 mmHg
  AUC value under graded distension pressures (EMG): 319.78 ± 118.03
PI-IBS rats [1]; 20 mg/kg i.g., 60 mmHg
  AUC value under graded distension pressures (EMG): 470.73 ± 173.52
PI-IBS rats [1]; 20 mg/kg i.g., 80 mmHg
  AUC value under graded distension pressures (EMG): 725.28 ± 192.44
TPH; PI-IBS rats, colon, 10 mg/kg i.g.
  TPH/actin ratio: 0.62 ± 0.11
TPH; median dose, 10 mg/kg, p<0.05
  Reduction of colonic TPH expression in PI-IBS rats: ~22.8%
PI-IBS rats [2]; 5 mg/kg i.g.
  EC cell density: 89 ± 5 Number/mm^2
PI-IBS rats [2]; 10 mg/kg i.g.
  EC cell density: 72 ± 7 Number/mm^2
PI-IBS rats [2]; 20 mg/kg i.g.
  EC cell density: 105 ± 8 Number/mm^2
PI-IBS rats [2]; low dose (5 mg/kg)
  Decrease of EC cells number compared with the PI-IBS group: 18%
PI-IBS rats [2]; median dose (10 mg/kg)
  Decrease of EC cells number compared with the PI-IBS group: 42%
Normal rats
  Pain threshold pressure: 37.9 ± 1.7 mmHg
